Legend:
[1] = target: T1, Solute carrier organic anion transporter family member 1B3 (OATP1B3) (Homo sapiens, UniProt Q9NPD5); assay: (§1) TP_TRANSPORTER: uptake in Xenopus laevis oocytes; assay type: functional, cell-based, Oocyte; details: Xenopus laevis oocytes expressing the transporter
T1 sequence (Q9NPD5 whole entry): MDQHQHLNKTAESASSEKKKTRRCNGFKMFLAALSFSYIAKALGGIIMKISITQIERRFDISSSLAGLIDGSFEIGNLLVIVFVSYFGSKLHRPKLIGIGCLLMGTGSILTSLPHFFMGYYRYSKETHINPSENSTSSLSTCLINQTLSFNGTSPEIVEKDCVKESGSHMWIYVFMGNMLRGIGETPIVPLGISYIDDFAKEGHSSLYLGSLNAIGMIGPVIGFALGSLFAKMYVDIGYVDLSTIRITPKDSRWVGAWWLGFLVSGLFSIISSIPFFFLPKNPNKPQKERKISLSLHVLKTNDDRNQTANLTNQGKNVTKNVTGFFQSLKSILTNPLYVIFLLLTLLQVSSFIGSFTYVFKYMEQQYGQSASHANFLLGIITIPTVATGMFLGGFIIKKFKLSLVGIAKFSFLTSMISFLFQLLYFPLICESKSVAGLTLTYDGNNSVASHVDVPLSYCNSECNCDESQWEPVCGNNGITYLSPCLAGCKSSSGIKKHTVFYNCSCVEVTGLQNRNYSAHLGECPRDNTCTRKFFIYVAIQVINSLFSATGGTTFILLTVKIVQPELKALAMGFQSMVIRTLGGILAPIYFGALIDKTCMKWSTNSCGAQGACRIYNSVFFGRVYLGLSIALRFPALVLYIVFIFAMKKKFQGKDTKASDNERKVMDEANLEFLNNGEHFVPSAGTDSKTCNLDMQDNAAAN

[2] = target: T2, Solute carrier organic anion transporter family member 1A2 (Homo sapiens, UniProt P46721); assay: as §1; assay type: functional, cell-based; details: oocyte
T2 sequence (P46721 whole entry): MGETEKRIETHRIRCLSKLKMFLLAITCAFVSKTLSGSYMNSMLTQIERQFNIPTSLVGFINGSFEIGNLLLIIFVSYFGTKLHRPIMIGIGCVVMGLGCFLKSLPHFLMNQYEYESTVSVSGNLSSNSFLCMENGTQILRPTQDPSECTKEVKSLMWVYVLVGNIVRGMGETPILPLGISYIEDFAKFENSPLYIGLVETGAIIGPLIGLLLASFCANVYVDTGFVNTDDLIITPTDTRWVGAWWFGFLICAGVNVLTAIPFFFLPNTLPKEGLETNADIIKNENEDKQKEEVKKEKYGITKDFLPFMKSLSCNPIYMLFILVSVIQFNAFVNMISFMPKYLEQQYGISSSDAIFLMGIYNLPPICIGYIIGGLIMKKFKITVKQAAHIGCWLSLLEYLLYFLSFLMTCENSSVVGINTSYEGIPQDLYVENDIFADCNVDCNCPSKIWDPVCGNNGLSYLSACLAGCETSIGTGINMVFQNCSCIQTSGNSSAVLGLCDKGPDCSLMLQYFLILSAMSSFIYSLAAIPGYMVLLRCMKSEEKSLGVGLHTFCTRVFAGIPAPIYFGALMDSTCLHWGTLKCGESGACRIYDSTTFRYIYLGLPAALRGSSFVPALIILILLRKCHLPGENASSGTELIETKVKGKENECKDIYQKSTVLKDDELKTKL

[3] = target: T3, Solute carrier organic anion transporter family member 2B1 (Homo sapiens, UniProt O94956); assay: as §1; assay type: functional, cell-based; details: oocyte
T3 sequence (O94956 whole entry): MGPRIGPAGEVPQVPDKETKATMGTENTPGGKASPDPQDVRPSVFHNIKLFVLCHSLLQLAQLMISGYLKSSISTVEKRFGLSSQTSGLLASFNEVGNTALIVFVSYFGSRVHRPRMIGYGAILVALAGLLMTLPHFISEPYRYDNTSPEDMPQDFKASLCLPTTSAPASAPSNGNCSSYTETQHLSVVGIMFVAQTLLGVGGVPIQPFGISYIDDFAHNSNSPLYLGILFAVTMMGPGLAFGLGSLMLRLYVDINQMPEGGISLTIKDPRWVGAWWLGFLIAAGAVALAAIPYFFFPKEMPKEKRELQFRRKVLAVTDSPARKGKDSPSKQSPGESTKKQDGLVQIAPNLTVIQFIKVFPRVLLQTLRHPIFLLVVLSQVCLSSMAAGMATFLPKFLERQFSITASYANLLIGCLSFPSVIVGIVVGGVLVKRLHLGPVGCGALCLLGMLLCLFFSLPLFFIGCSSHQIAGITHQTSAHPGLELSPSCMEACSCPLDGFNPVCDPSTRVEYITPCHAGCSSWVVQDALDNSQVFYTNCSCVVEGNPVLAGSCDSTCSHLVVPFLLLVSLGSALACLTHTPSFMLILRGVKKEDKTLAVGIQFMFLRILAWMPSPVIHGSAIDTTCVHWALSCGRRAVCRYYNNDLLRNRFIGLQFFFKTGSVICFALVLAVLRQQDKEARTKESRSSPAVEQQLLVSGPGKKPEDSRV

[4] = target: T2, Solute carrier organic anion transporter family member 1A2; assay: (§2) TP_TRANSPORTER: inhibition of BSP uptake in Xenopus laevis oocytes; assay type: functional, cell-based, Oocyte
[5] = target: T4, Solute carrier organic anion transporter family member 1B1 (Homo sapiens, UniProt Q9Y6L6); assay: as §2; assay type: functional, cell-based, Oocyte
T4 sequence (Q9Y6L6 whole entry): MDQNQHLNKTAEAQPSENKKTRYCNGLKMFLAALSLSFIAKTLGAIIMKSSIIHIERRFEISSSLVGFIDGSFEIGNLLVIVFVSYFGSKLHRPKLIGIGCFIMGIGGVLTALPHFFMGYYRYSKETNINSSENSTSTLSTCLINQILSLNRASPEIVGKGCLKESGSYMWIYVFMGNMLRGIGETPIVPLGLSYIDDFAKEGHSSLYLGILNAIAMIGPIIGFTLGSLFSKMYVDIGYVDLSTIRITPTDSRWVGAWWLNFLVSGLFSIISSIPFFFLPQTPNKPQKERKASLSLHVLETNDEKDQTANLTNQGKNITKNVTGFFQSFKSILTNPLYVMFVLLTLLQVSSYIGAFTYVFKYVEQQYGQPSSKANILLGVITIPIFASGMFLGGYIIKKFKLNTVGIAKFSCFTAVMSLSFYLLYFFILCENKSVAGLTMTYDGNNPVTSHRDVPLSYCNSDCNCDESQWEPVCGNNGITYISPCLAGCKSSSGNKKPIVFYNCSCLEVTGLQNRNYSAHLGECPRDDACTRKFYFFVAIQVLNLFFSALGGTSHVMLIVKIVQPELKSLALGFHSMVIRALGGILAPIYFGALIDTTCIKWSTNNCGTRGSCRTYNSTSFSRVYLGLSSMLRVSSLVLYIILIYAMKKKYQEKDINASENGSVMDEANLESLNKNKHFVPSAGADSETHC

[6] = target: T5, Solute carrier organic anion transporter family member 1B3 (Homo sapiens, UniProt Q9NPD5); assay: as §2; assay type: functional, cell-based, Oocyte
T5 sequence (Q9NPD5 whole entry): T1 sequence (Q9NPD5 whole entry)

[7] = target: T3, Solute carrier organic anion transporter family member 2B1; assay: as §2; assay type: functional, cell-based, Oocyte
[8] = substrate: CO[C@H]1/C=C/O[C@@]2(C)Oc3c(C)c(O)c4c(O)c(c(/C=N/N5CCN(C)CC5)c(O)c4c3C2=O)NC(=O)/C(C)=C\C=C\[C@H](C)[C@H](O)[C@@H](C)[C@@H](O)[C@@H](C)[C@H](OC(C)=O)[C@@H]1C; assay: as §1; assay type: functional, cell-based, Oocyte

Molecule: CO[C@H]1/C=C/O[C@@]2(C)Oc3c(C)c(O)c4c(O)c(c(/C=N/N5CCN(C)CC5)c(O)c4c3C2=O)NC(=O)/C(C)=C\C=C\[C@H](C)[C@H](O)[C@@H](C)[C@@H](O)[C@@H](C)[C@H](OC(C)=O)[C@@H]1C [RIFAMPIN]
- Km [1]: 2.3 µM
- Activity [2]: is not a substrate [-]
- Activity [3]: is not a substrate [-]
- Ki [4]: 51 µM
- Ki [5]: 17 µM
- Ki [6]: 5 µM

Molecule: CO[C@H]1/C=C/O[C@@]2(C)Oc3c(C)c(O)c4c(O)c(cc(O)c4c3C2=O)NC(=O)/C(C)=C\C=C\[C@H](C)[C@H](O)[C@@H](C)[C@@H](O)[C@@H](C)[C@H](OC(C)=O)[C@@H]1C [RIFAMYCIN]
- Ki [4]: 11 µM
- Ki [5]: 2 µM
- Ki [6]: 3 µM
- Ki [7]: 3 µM

B1: Solute carrier organic anion transporter family member 1B1 (Homo sapiens) (protein)
chain: T4 sequence (Q9Y6L6 whole entry)
- Km [8]: 13 µM

Reference: ChEMBL document CHEMBL2073929, “Interactions of rifamycin SV and rifampicin with organic anion uptake systems of human liver” (Hepatology, 2002)
